Assay results as given in ChEMBL document CHEMBL5104111, “Boron-Containing heterocycles as promising pharmacological agents” (Bioorg Med Chem, 2022).
In brackets after ≈: the same amount, converted by molar mass.

Key:
Plasmodium falciparum [1] = experiment: Antimalarial activity against Plasmodium falciparum W2 assessed as parasite growth inhibition; assay type: functional, organism-based
Plasmodium falciparum [2] = experiment: Antimalarial activity against Plasmodium falciparum 3D7 assessed as parasite growth inhibition; assay type: functional, organism-based
Carbonic anhydrase 2 = Carbonic anhydrase 2 (Homo sapiens, UniProt P00918); experiment: Binding affinity to human CA-II assessed as inhibition constant preincubated for 15 mins by bromothymol blue staining based assay
[3] = Binding affinity to Cryptococcus neoformans beta-carbonic anhydrase assessed as inhibition constant preincubated for 15 mins by bromothymol blue staining based assay
[4] = Binding affinity to Candida glabrata beta-carbonic anhydrase assessed as inhibition constant preincubated for 15 mins by bromothymol blue staining based assay; set-up: species or system Nakaseomyces glabratus
Carbonic anhydrase 1 = Carbonic anhydrase 1 (Homo sapiens, UniProt P00915); experiment: Binding affinity to human CA-I assessed as inhibition constant preincubated for 15 mins by bromothymol blue staining based assay
[5] = Half life in human; assay type: ADME
[6] = Dissociation constant, pKa of the compound; assay type: physicochemical
Hepatitis C virus = experiment: Antiviral activity against HCV GT1a316Y assessed as reduction in viral replication; assay type: functional, organism-based, Hepacivirus hominis
[7] = Inhibition of beta-lactamase TEM-1 (unknown origin) using nitrocefin as substrate preincubated for 5 mins followed by substrate addition measured after 1 to 5 mins by colorimetry; set-up: species or system Bacteria
[8] = Inhibition of beta-lactamase CTX-M-15 (unknown origin) using nitrocefin as substrate preincubated for 5 mins followed by substrate addition measured after 1 to 5 mins by colorimetry; set-up: species or system Bacteria
[9] = Inhibition of beta-lactamase P99 (unknown origin) using nitrocefin as substrate preincubated for 5 mins followed by substrate addition measured after 1 to 5 mins by colorimetry; set-up: species or system Bacteria
[10] = Inhibition of beta-lactamase KPC-2 (unknown origin) using nitrocefin as substrate preincubated for 5 mins followed by substrate addition measured after 1 to 5 mins by colorimetry; set-up: species or system Bacteria
[11] = Inhibition of beta-lactamase OXA-24 (unknown origin) using nitrocefin as substrate preincubated for 5 mins followed by substrate addition measured after 1 to 5 mins in presence of KHCO3 by colorimetry; set-up: species or system Bacteria
[12] = tested on: Mycobacterium tuberculosis; experiment: Antibacterial activity against Mycobacterium tuberculosis assessed as bacterial growth inhibition by broth microdilution method; assay type: functional
Trypanosoma brucei [13] = experiment: Antiparasitic activity against Trypanosoma brucei 427 assessed as parasite growth inhibition incubated for 24 hrs by fluorescence based assay; assay type: functional, organism-based; settings: Trypanosoma brucei, 427, 24 h
Trypanosoma brucei [14] = experiment: Antitrypanosomal activity against Trypanosoma brucei assessed as parasite growth inhibition; assay type: functional, organism-based
[15] = tested on: Mycobacterium tuberculosis; experiment: Antibacterial activity against Mycobacterium tuberculosis H37Rv assessed as bacterial growth inhibition cultured in 7H9 medium measured after 14 days by absorbance based assay; assay type: functional; settings: 336 h, time 14 day
[16] = tested on: Mycobacterium tuberculosis; experiment: Antibacterial activity against Mycobacterium tuberculosis H37Rv assessed as bacterial growth inhibition cultured in GAST medium measured after 14 days by absorbance based assay; assay type: functional; settings: 336 h, time 14 day
Candida albicans = experiment: Antifungal activity against Candida albicans assessed as fungal growth inhibition incubated for 48 hrs by agar diffusion method; assay type: functional
Penicillium ochrochloron = experiment: Antifungal activity against Penicillium ochrochloron assessed as fungal growth inhibition incubated for 72 hrs by agar diffusion method; assay type: functional
Aspergillus niger [17] = experiment: Antifungal activity against Aspergillus niger assessed as fungal growth inhibition incubated for 48 hrs by agar diffusion method; assay type: functional
[18] = tested on: Staphylococcus epidermidis; experiment: Antibacterial activity against Staphylococcus epidermidis assessed as bacterial growth inhibition by broth microdilution method; assay type: functional
Escherichia coli [19] = experiment: Antibacterial activity against Escherichia coli expressing tolC assessed as bacterial growth inhibition by broth microdilution method; assay type: functional
Onchocerca volvulus = experiment: Antiparasitic activity against third stage larvae of Onchocerca volvulus assessed as parasite growth inhibition incubated for 6 days by inverted microscopy; assay type: functional, organism-based; settings: 144 h
[20] = tested on: Mycobacterium tuberculosis; experiment: Antibacterial activity against Mycobacterium tuberculosis H37Rv ATCC 25618 assessed as bacterial growth inhibition cultured in liquid media for 5 days by absorbance based assay; assay type: functional; settings: H37Rv ATCC 25618, 120 h, time 5 day
[21] = tested on: Mycobacterium tuberculosis; experiment: Antibacterial activity against Mycobacterium tuberculosis H37Rv ATCC 25618 assessed as bacterial growth inhibition cultured in solid media incubated for 3 to 4 weeks; assay type: functional; settings: time 3-4 weeks
[22] = tested on: Mycobacterium tuberculosis; experiment: Antibacterial activity against Mycobacterium tuberculosis H37Rv ATCC 25618 infected in human THP-1 cells assessed as bacterial growth inhibition at MOI of 1 incubated for 3 days by Cell Titer Glo assay; assay type: functional, organism-based; settings: H37Rv ATCC 25618, THP-1, 72 h
HepG2 = experiment: Cytotoxicity against human HepG2 cells assessed as cell growth inhibition incubated for 2 days by Cell Titer Glo assay; assay type: functional, cell-based; settings: HepG2, 48 h
[23] = Inhibition of Escherichia coli LeuRS using Escherichia coli tRNA as substrate incubated for 20 mins in presence of 14C-leucine/ATP
Escherichia coli [24] = experiment: Antibacterial activity against Escherichia coli ATCC 25922 assessed as bacterial growth inhibition; assay type: functional
[25] = Bioavailability in monkey; assay type: ADME, organism-based, Macaca mulatta; settings: rhesus monkey, in vivo
Plasmodium falciparum [26] = experiment: Antimalarial activity against multidrug-resistant Plasmodium falciparum W2 assessed as parasite growth inhibition incubated for 48 hrs by FACS analysis; assay type: functional, organism-based; settings: W2, 48 h
[27] = molecular target: T1, 3',5'-cyclic-AMP phosphodiesterase 4B (Homo sapiens, UniProt Q07343); experiment: Displacement of […] from full-length recombinant human PDE4B2 catalytic domain by fluorescence polarisation assay
[28] = molecular target: T1, 3',5'-cyclic-AMP phosphodiesterase 4B; experiment: Displacement of […] from full-length recombinant human PDE4B1 by fluorescence polarisation assay
[29] = molecular target: T1, 3',5'-cyclic-AMP phosphodiesterase 4B; experiment: Displacement of […] from full-length recombinant human PDE4B2 by fluorescence polarisation assay
[30] = molecular target: 3',5'-cyclic-AMP phosphodiesterase 4C (Homo sapiens, UniProt Q08493); experiment: Displacement of […] from full-length recombinant human PDE4C1 by fluorescence polarisation assay
[31] = molecular target: 3',5'-cyclic-AMP phosphodiesterase 4D (Homo sapiens, UniProt Q08499); experiment: Displacement of […] from full-length recombinant human PDE4D7 by fluorescence polarisation assay
[32] = molecular target: Cyclin-dependent kinase 2 (Homo sapiens, UniProt P24941); experiment: Inhibition of CDK2 (unknown origin) using peptide substrate in presence of ATP
[33] = Bioavailability in Sprague-Dawley rat […] measured upto 7 hrs by LC/MS analysis; assay type: ADME, organism-based; settings: in vivo
[34] = AUC in Sprague-Dawley rat at 1 mg/kg, po measured upto 7 hrs by LC/MS analysis; assay type: ADME, organism-based; set-up: dose 1 mg/kg, time < 7 hrs, route po; settings: in vivo
[35] = Half life in Sprague-Dawley rat at 1 mg/kg, po or 1 mg/kg, iv measured upto 7 hrs by LC/MS analysis; assay type: ADME, organism-based; settings: in vivo
[36] = Tmax in Sprague-Dawley rat at 1 mg/kg, po or 1 mg/kg, iv measured upto 7 hrs by LC/MS analysis; assay type: ADME, organism-based; settings: in vivo
[37] = Cmax in Sprague-Dawley rat at 1 mg/kg, po or 1 mg/kg, iv measured upto 7 hrs by LC/MS analysis; assay type: ADME, organism-based; set-up: time < 7 hrs, dose 1 mg/kg, route po; settings: in vivo
Aspergillus niger [38] = experiment: Antifungal activity against Aspergillus niger assessed as fungal growth inhibition; assay type: functional

T1 sequence (Q07343 whole entry, the tested form may be a part): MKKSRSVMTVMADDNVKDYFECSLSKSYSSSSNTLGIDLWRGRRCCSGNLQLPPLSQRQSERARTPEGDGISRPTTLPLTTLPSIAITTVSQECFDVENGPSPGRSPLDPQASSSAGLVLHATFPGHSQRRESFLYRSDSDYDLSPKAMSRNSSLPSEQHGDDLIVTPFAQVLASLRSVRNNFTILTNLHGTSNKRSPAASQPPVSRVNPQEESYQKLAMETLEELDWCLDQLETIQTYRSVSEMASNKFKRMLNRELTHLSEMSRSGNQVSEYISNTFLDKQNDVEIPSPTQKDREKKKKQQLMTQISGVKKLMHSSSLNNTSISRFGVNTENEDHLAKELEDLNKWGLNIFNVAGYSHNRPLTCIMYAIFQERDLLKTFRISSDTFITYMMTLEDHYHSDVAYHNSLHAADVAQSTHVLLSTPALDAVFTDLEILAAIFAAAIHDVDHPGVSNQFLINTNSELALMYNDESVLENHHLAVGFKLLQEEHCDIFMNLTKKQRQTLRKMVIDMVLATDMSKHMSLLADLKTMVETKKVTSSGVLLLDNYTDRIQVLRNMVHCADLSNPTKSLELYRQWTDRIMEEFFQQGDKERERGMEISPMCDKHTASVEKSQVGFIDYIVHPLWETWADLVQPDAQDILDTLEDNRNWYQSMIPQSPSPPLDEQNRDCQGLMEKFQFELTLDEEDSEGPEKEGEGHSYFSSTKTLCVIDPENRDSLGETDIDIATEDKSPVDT
Carbonic anhydrase 1, sequence (P00915 whole entry): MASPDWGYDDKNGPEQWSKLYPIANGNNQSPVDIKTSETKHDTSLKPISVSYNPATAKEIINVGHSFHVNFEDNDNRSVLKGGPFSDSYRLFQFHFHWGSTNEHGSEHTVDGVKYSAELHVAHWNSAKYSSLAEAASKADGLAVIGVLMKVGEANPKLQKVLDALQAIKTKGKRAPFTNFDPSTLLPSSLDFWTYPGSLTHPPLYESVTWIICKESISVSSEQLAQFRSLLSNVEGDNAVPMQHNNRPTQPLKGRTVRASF
3',5'-cyclic-AMP phosphodiesterase 4D, sequence (Q08499 whole entry): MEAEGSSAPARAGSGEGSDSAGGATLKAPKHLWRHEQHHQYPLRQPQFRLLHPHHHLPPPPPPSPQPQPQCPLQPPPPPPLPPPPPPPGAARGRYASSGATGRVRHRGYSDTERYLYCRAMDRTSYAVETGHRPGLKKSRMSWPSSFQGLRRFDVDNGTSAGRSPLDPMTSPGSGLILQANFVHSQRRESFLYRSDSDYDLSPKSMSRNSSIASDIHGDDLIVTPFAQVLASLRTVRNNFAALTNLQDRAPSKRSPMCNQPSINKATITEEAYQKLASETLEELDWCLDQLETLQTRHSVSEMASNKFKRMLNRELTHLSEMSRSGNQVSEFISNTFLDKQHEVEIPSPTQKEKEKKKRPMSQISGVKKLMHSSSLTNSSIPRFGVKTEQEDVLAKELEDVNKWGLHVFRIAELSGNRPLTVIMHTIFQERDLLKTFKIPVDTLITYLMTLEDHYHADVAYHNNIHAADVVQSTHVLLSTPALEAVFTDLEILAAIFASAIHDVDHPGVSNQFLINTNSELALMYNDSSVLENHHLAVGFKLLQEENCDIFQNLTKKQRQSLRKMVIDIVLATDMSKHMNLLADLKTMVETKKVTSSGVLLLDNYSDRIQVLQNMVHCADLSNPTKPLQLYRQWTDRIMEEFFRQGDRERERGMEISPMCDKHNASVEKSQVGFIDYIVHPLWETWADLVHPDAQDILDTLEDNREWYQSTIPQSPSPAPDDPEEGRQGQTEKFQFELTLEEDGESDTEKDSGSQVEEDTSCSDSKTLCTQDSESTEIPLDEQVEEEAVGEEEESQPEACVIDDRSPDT
3',5'-cyclic-AMP phosphodiesterase 4C, sequence (Q08493 whole entry): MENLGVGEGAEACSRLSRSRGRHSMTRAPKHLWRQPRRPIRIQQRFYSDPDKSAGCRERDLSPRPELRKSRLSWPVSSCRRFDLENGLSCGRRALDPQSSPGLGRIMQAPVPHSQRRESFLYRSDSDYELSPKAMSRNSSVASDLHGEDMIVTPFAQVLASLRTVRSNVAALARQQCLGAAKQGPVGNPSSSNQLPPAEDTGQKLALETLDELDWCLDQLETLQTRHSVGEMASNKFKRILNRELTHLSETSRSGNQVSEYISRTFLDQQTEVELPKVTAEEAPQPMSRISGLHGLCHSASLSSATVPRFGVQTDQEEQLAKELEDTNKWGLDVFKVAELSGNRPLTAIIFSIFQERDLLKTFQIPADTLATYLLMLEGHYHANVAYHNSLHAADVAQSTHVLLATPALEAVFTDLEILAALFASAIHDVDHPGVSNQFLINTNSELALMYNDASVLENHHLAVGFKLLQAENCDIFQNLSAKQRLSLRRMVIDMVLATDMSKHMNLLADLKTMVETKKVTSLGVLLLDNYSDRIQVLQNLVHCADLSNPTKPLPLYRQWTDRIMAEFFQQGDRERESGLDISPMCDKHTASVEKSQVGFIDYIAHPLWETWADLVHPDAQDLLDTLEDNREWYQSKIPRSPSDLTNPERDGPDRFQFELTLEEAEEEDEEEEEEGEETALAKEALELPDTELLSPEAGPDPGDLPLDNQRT

SMILES: Cc1c(Oc2cnc(C(=O)N3CC(C)(O)C3)cn2)ccc2c1B(O)OC2
- IC50 (Plasmodium falciparum [1]): 33 µM
- IC50 (Plasmodium falciparum [2]): 43 µM

SMILES: O=[N+]([O-])c1ccc(NC(=S)Nc2ccc3c(c2)B(O)OC3)cc1
- Ki (Carbonic anhydrase 2): 504 nM
- Ki [3]: 88 nM
- Ki [4]: 89 nM
- Ki (Carbonic anhydrase 1): 6.35 µM

SMILES: CNC(=O)c1c(-c2ccc(F)cc2)oc2cc(N(c3cc(Cl)c4c(c3)COB4O)S(C)(=O)=O)c(C3CC3)cc12
- half-life [5]: 2.5 days
- pKa [6]: 5.4
- EC50 (Hepatitis C virus): 32 nM

SMILES: Cc1c(Oc2nc(N)ns2)cc2c(c1C)[C@@H](CC(=O)O)OB2O
- IC50 [7]: < 5 nM
- IC50 [8]: < 5 nM
- IC50 [9]: 12 nM
- IC50 [10]: 26 nM
- IC50 [11]: 88 nM

SMILES: O=C(/C=C/c1ccc2c(c1)OCO2)Nc1ccc2c(c1)B(O)OC2
- MIC99 [12]: 40.7 µM (≈ 13.2 µg/mL)
- IC50 (Trypanosoma brucei [13]): 86 nM
- IC50 (Trypanosoma brucei [14]): 100 nM

SMILES: Nc1cc2c(cc1Br)COB2O
- MIC99 [15]: 7.8 µM (≈ 1.78 µg/mL)
- MIC99 [16]: 1.9 µM (≈ 0.433 µg/mL)

SMILES: OB1OC(N2CCN(C3OB(O)c4cccc(F)c43)CC2)c2c(F)cccc21 (stereo not given)
- inhibition zone (IZ) (Candida albicans): 35 mm
- inhibition zone (IZ) (Penicillium ochrochloron): 41 mm
- inhibition zone (IZ) (Aspergillus niger [17]): 41 mm

SMILES: CC[C@H]1OC(=O)[C@H](C)[C@@H](O[C@H]2C[C@@](C)(OC)[C@@H](O)[C@H](C)O2)[C@H](C)[C@@H](O[C@@H]2O[C@H](C)C[C@H](N(C)C)[C@H]2O)[C@](C)(OC)C[C@@H](C)/C(=N\OCC(=O)NC[C@H]2OB(O)c3ccccc32)[C@H](C)[C@@H](O)[C@]1(C)O
- MIC [18]: 0.5 µg/mL (≈ 0.518 µM)
- MIC (Escherichia coli [19]): 8 µg/mL (≈ 8.28 µM)

SMILES: COC(=O)Nc1nc2cc(C(=O)NCc3ccc4c(c3)B(O)OC4(C)C)ccc2[nH]1
- IC50 (Onchocerca volvulus): 300 nM

SMILES: Cc1c(OCc2ccccc2)ccc2c1B(O)OC2
- MIC [20]: 2 µM (≈ 0.508 µg/mL)
- MIC [21]: 0.8 µM (≈ 0.203 µg/mL)
- IC50 [22]: 3.6 µM
- IC50 (HepG2): > 100 µM

SMILES: Cl.NC[C@H]1OB(O)c2c1ccc1c2OCO1
- IC50 [23]: 380 nM
- MIC (Escherichia coli [24]): 1 µg/mL
- bioavailability [25]: 100%

SMILES: CCOc1ccc(Br)c2c1B(O)O[C@@H]2CC
- IC50 (Plasmodium falciparum [26]): 490 nM

SMILES: CC(C)OCCOc1ncc(Oc2ccc3c(c2)B(O)OC3)cc1C#N
- IC50 [27]: 2.1 nM
- IC50 [28]: 2.1 nM
- IC50 [29]: 2.1 nM
- IC50 [30]: 2.1 nM
- IC50 [31]: 2.1 nM

SMILES: O=C(Cc1ccc(B2C=CC=CN2)cc1)Nc1cc(C2CC2)[nH]n1
- IC50 [32]: 87 nM
- bioavailability [33]: 29.3%
- AUC at 7 h [34]: 0.613 µM·h
- half-life [35]: 696 min
- Tmax [36]: 1.5 h
- Cmax [37]: 746 nM

SMILES: OB1OC(N2CCN(c3ccc(F)cc3)CC2)c2ccccc21 (stereo not given)
- MIC (Aspergillus niger [38]): 62.5 µg/mL (≈ 200 µM)
